Earlier results, collected in paper PMC6422283 (Future medicinal chemistry, 2015).

Test system: TRPV1
Conditions: capsaicin-induced Ca2+ flux into HEK293 cells

Row | Structure (SMILES) | IC50 [nM]
1 | Oc1cc2c(cc1O)CN(C(=S)NCCc1ccc(Cl)cc1)CCC2 [Compound 2, capsazepine] | 100
2 | Cc1nc2cc(NC(=O)c3ccc(-c4ccc(F)cc4)nc3C)ccc2s1 [SB782443] | 49
